Assay results: patent US10722514B2 (FLX Bio, Inc., priority 2017, dated 2020)

The compounds below were run against T1, recombinant full-length USP7 (Homo sapiens, UniProt Q93009) (assay: USP7-mediated ubiquitin-rhodamine cleavage assay). Details: recombinant full-length USP7 62 pM; ubiquitin-rhodamine 100 nM; 30-minute incubation with compound, 1 hour reaction at room temperature; read-out: Potency: USP7 IC50.
T1 construct: A 25 μl reaction volume containing recombinant full-length USP7 (62 pM)
T1 sequence (Q93009 whole entry): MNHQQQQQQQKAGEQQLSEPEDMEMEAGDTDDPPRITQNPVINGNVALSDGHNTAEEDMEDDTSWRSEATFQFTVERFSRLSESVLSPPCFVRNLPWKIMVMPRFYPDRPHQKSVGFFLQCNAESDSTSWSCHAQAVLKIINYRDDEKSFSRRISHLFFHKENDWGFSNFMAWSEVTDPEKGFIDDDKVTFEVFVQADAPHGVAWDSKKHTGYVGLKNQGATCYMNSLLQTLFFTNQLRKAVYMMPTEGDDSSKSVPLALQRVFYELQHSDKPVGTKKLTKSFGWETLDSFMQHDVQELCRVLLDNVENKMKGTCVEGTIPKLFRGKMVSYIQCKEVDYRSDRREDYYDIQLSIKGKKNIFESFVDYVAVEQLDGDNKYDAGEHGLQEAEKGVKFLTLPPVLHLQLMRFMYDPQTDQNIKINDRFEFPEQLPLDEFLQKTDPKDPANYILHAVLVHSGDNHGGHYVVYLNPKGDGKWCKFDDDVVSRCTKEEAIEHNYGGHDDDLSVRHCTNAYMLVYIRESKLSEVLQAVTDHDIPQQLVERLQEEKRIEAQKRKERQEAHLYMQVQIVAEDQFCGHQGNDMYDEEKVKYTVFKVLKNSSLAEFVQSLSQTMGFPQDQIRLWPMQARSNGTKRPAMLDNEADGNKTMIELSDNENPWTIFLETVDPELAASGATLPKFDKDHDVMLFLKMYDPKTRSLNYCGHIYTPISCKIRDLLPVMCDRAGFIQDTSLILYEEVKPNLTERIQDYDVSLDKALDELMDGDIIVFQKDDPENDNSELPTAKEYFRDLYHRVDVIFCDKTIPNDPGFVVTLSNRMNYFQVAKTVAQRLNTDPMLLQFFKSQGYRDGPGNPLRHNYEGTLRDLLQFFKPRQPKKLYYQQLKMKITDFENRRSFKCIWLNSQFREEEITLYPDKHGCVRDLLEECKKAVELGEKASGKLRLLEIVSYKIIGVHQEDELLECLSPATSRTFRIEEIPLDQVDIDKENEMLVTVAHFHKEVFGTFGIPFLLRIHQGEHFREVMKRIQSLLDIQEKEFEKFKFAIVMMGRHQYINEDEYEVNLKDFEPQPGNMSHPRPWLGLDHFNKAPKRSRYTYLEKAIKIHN
Type: biochemical
Outline: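 USP7 (62 pM) in 20 mM HEPES pH 7.3, 150 mM NaCl, 1 mM TCEP, 125 μg/ml BSA was preincubated with compound (1% DMSO) for 30 min at room temperature. Ubiquitin-rhodamine (100 nM final) was then added for 1 hour, the reaction stopped with acetic acid, and fluorescence read; IC50 from 4-parameter fit.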
In the case of `Cc1cc(Cl)cc(-c2ccnc3cc(CN4C(=O)N(C)C(C)(C)C4=O)sc23)c1O[C@@H]1CNC[C@@H]1F` [Example 155, 3-((7-(5-Chloro-2-(((3R,4S)-4-fluoropyrrolidin-3-yl)oxy)-3-methylphenyl)thieno[3,2-b]pyridin-2-yl)methyl)-1,5,5-trimethylimidazolidine-2,4-dione], the IC50 is reported as < 1000 nM. `Cc1cc2nccc(-c3cc(C#N)cc(C)c3O[C@H]3CCCNC3)c2s1` [Example 182, (S)-3-Methyl-5-(2-methylthieno[3,2-b]pyridin-7-yl)-4-(piperidin-3-yloxy)benzonitrile] showed an IC50 of 10000 to 30000 nM. For `Cc1cc(Cl)cc(-c2ccnc3ccsc23)c1OC1CCNC1=O` (stereo not drawn) [Example 79, 3-(4-chloro-2-methyl-6-(thieno[3,2-b]pyridin-7-yl)phenoxy)pyrrolidin-2-one], the IC50 was > 30000 nM. `CCC(O)c1cc2nccc(-c3cc(Cl)cc(C)c3OC3CC4CC3CN4)c2s1` (stereo not drawn) [Example 197, 1-(7-(2-((2-Azabicyclo[2.2.1]heptan-5-yl)oxy)-5-chloro-3-methylphenyl)thieno[3,2-b]pyridin-2-yl)propan-1-ol] gave an IC50 of 1000 to 10000 nM. `CCC(O)c1cc2nccc(-c3cc(Cl)cc(C)c3O[C@H]3CCCN(C)C3)c2s1` (stereo partly drawn) [Example 186, 1-(7-(5-Chloro-3-methyl-2-(((S)-1-methylpiperidin-3-yl)oxy)phenyl)thieno[3,2-b]pyridin-2-yl)propan-1-ol] showed an IC50 of 10000 to 30000 nM.

Same assay, conditions: recombinant full-length USP7 62 pM; ubiquitin-rhodamine 100 nM; 30-minute incubation, 1 hour reaction at room temperature; read-out: Potency (USP7 IC50)
`Cc1cc(Cl)cc(-c2ccnc3cc(Cn4c(=O)ccn(CC(F)(F)F)c4=O)sc23)c1OC1COC1` [Example 671, 3-[[7-[5-chloro-3-methyl-2-(oxetan-3-yloxy)phenyl]thieno[3,2-b]pyridin-2-yl]methyl]-1-(2,2,2-trifluoroethyl)pyrimidine-2,4-dione] was tested, and the IC50 was < 1000 nM. `Cc1cc(Cl)cc(-c2ccnc3cc(Cn4c(=O)ccn(CC(F)(F)F)c4=O)sc23)c1OC1CC2(COCCN2)C1` (stereo not drawn) [Example 698, 3-[[7-[5-chloro-3-methyl-2-(8-oxa-5-azaspiro[3.5]nonan-2-yloxy)phenyl]thieno[3,2-b]pyridin-2-yl]methyl]-1-(2,2,2-trifluoroethyl)pyrimidine-2,4-dione] was tested, and the IC50 was < 1000 nM.

Same assay, conditions: recombinant full-length USP7 62 pM; ubiquitin-rhodamine 100 nM; 30-minute pre-incubation, 1 hour reaction at room temperature; read-out: Potency (USP7 IC50)
In the case of `CC(=O)N1CCC[C@H](Oc2c(C)cc(Cl)cc2-c2ccnc3cc(Cn4c(=O)ccn(CC(F)(F)F)c4=O)sc23)C1` [Example 660, 3-[[7-[2-[[(3S)-1-acetyl-3-piperidyl]oxy]-5-chloro-3-methyl-phenyl]thieno[3,2-b]pyridin-2-yl]methyl]-1-(2,2,2-trifluoroethyl)pyrimidine-2,4-dione], the IC50 is reported as < 1000 nM. In the case of `Cc1cc(Cl)cc(-c2ccnc3c(F)c(CO)sc23)c1O[C@@H]1CNC[C@@H]1F` [Example 407, [7-[5-chloro-2-[(3R,4S)-4-fluoropyrrolidin-3-yl]oxy-3-methyl-phenyl]-3-fluoro-thieno[3,2-b]pyridin-2-yl]methanol], the IC50 is reported as < 1000 nM. In the case of `Cc1cc(Cl)cc(-c2ccnc3cc(CN4C(=O)CCC4=O)sc23)c1OC1CCOCC1` [Example 450, 1-[[7-(5-chloro-3-methyl-2-tetrahydropyran-4-yloxy-phenyl)thieno[3,2-b]pyridin-2-yl]methyl]pyrrolidine-2,5-dione], the IC50 is reported as < 1000 nM. `Cc1cc(Cl)cc(-c2ccnc3cc(Cn4c(=O)ccn(C(C)C)c4=O)sc23)c1OC1CN2CCC1C2` [Example 590, 3-[[7-[2-[[(1S,3S,4R)-1-azabicyclo[2.2.1]heptan-3-yl]oxy]-5-chloro-3-methyl-phenyl]thieno[3,2-b]pyridin-2-yl]methyl]-1-isopropyl-pyrimidine-2,4-dione] was tested, and the IC50 was < 1000 nM. `Cc1cc(Cl)cc(-c2ccnc3cc(Cn4c(=O)ccn(CC(F)(F)F)c4=O)sc23)c1O[C@@H]1CN[C@H](C(C)(C)O)C1` [Example 634, 3-[[7-[5-chlloro-2-[(3S,5S)-5-(1-hydroxy-1-methyl-ethyl)pyrrolidin-3-yl]oxy-3-methyl-phenyl]thieno[3,2-b]pyridin-2-yl]methyl]-1-(2,2,2-trifluoroethyl)pyrimidine-2,4-dione] was tested, and the IC50 was < 1000 nM.
